Source: patent US20240374734A1, “Immunomodulatory Combinations of Antigen and Drug-Lipid Conjugate” (Integrated Nanotherapeutics Inc., priority 2021, published 2024)
Like-named read-outs stand apart in the source and are kept apart here.

Key:
[1] = human, plasma, 2 h
[2] = Characterisation of prodrug LNP: particle size, PdI, prodrug entrapment; assay type: physicochemical; conditions: for % Entrap (Dex/Calcitriol): Calcitriol: Table 2, calcitriol prodrug; for PdI / Size: Table 2, prodrug LNP
Protocol: Lipid conjugates (prodrugs) were dissolved in ethanol, isopropanol, DMSO or THF. LNP were prepared by rapidly mixing DSPC or DMPC, cholesterol, prodrugs, and PEG-DSPE (in a molar ratio of 49/40/10/1) with phosphate-buffered saline (PBS) using a cross-junction mixer. Formulations were dialyzed against PBS to remove residual ethanol. In cases where a peptide antigen, such as ovalbumin peptide […] (OVA), was co-formulated within the LNP, the peptide is dissolved in PBS and rapidly mixed with the lipid phase. Dialysis or tangential flow filtration was used to remove all unentrapped peptide.
(§1) The physiochemical properties of the LNPs prepared as described above were subsequently characterized. Particle size was determined by dynamic light scattering using a Malvern Zetasizer Nano ZS (Malvern, UK) following buffer exchange into phosphate-buffered saline. Number-weighted size and distribution data was used. Lipid concentrations were determined by measuring total cholesterol using the Cholesterol E enzymatic assay kit from Wako Chemicals USA (Richmond, VA). mRNA entrapment was determined using a modified Quanti-iT Ribogreen assay (ThermoFisher, Waltham, MA). LNP-mRNA systems were incubated in the presence or absence of 1% Triton X-100 (Sigma-Aldrich, St. Louis, MO). Fluorescence intensities (Ex/Em: 480/520 nm) were compare to determine % mRNA entrapment.

[3] = test system: Ova specific CD4+ T cells (OT-II T cells); assay: OT-II CD4+ T cell proliferation after BMDC co-treatment with LNP-mRNA and prodrug-LNP; assay type: cell-based, mice; conditions: BMDCs treated 48 hours with LNP-mRNA only or LNP-mRNA and separate prodrug LNP
Protocol: The mRNA used in this example is modified to minimize immune stimulation and encodes for full length Ovalbumin (Ova) protein (Trilink, L-7210). Bone marrow-derived dendritic cells (BMDCs) were prepared as previously described and co-cultured with isolated CD4+ T cells (OT-II T cells) that specifically recognize the Ova323-339 epitope loaded in H-2b MHC Class II (C57BL/6 haplotype). Proliferation was assessed based on CFSE dilution by flow cytometry. BMDCs pulsed for 4 hours with free Ova323-339 peptide (0.1 μg/mL) served as an antigen-loaded control (Free Ova Peptide), and untreated BMDCs served as the No Antigen control. 48 hours prior to co-culturing, BMDCs were treated with LNP-mRNA only or LNP-mRNA and LNP containing dexamethasone (D034) or calcitriol (D053) prodrugs.

[4] = test system: CD4+ T cells from OT-II mice; assay: Antigen-specific OT-II CD4+ T cell proliferation with OVA peptide and prodrug-treated BMDCs; assay type: cell-based; conditions: BMDCs pre-treated with prodrug LNP, pulsed with free OVA peptide
Source text: CD4 T cells were collected from OT-II mice. These mice have T cell receptors on CD4+ T cells engineered to bind and react to Ovalbumin 323-339 peptide fragment (OVA) when presented on I-Ab MHC Class II. When APCs are loaded with OVA and mixed with these T cells, a robust proliferation of T cells is observed (akin to having an antigen-specific immune disorder).
For the antigen specific model, splenocytes were isolated from OT-II mice (B6.Cg-Tg (TcraTcrb) 425Cbn/J; Jackson Laboratories). CD4+ T cells were purified by CD4 positive selection (EasySep™ Mouse CD4+ T Cell Isolation Kit, Catalog #19852, Stem Cell Technologies) and labelled with 10 μM CFSE and plated in 96-well U bottom plates at a density of 100,000 cells/well. On the same day, prodrug treated C57BL/6 BMDCs (described above) were harvested, pulsed with/without OVA peptide, irradiated at 30 Gy, and co-cultured with the CD4+ cells for 3 days at T:DC ratios of 50:1, 10:1 and 5:1, in RPMI 1640 media (supplemented with 10% FBS, 10 mM HEPES, 50 μM β-mercaptoethanol, 10 mM sodium pyruvate, 1× GlutaMAX, and 1% Pen/Strep). Subsequently, cells were stained for viability (eBioscience Fixable Viability Dye eFlour780, cat #65-0865) and CD4 (eBioscience CD4 Monoclonal Antibody (RM4-5), cat #48-0042-82), and T cell proliferation was quantified via CFSE dilution by flow cytometry.

[5] = Characterisation of LNP co-loaded with mRNA and prodrugs: Z-Ave, PDI, mRNA and prodrug entrapment; assay type: physicochemical
Protocol: To prepare LNPs that contain mRNA that codes for the antigen, ionizable lipid such as INT-A002 (see page 32 of co-owned WO 2021/026647; Application No. PCT/CA2020/051098, which is incorporated herein by reference), DSPC, cholesterol and PEG-DMG were dissolved in ethanol. Prodrugs were dissolved in ethanol, isopropanol, DMSO or THF. The mRNA was dissolved in 10 mM citrate or 25 mM acetate buffer at pH 4.0. LNP were prepared by rapidly mixing the lipid components in ethanol (in molar ratio of 45/8.5/35/1.5/10 of INT-A002/DSPC/chol/PEG-DMG/prodrugs) with nucleic acids in aqueous buffer at a volumetric flow rate ratio of 1:3 (ethanol to aqueous, combined flow rate 28 ml/min) at room temperature. The product was then dialyzed against 1× phosphate-buffered saline (PBS) at pH 7.4 for 24 hours to remove residual ethanol and to raise the pH.
as §1

[6] = Retention of lipid conjugate (prodrug) in LNP after incubation in human plasma; conditions: 2 hours incubation in human plasma; DSPC/Chol/Prodrug/DSPE-PEG LNP
[7] = Table 6, LNP-mRNA with lipid conjugate

Row | Compound | lipid conjugate (prodrug) remaining in LNPs [1] | % Entrap (Dex/Calcitriol): Calcitriol [2] | PdI [2] | Size [2] [nm] | T-cell proliferation (CFSE dilution) [3] | T cell proliferation induced by OVA loaded BMDCs [4] | % mRNA Entrap. [5, 7] [%] | PDI [5, 7] | Z-Ave (nm) ([5]; Table 6, LNP-mRNA with lipid conjugate (mol %)) | lipid conjugate (prodrug) remaining in LNPs [6]
1 | CCCCC/C=C\C/C=C\CCCCCCCC(=O)O[C@@H](C/C=C\CCCCCCCCOC(=O)CCC(=O)OCC(=O)[C@@]1(O)[C@H](C)C[C@H]2[C@@H]3CCC4=CC(=O)C=C[C@]4(C)[C@@]3(F)[C@@H](O)C[C@@]21C)CCCCCC [Prodrug D045, 2-((8S,9R,10S,11S,13S,14S,16R,17R)-9-fluoro-11,17-dihydroxy-10,13,16-trimethyl-3-oxo-6,7,8,9,10,11,12,13,14,15,16,17-dodecahydro-3H-cyclopenta[a]phenanthren-17-yl)-2-oxoethyl ((R,Z)-12-(linoleoyloxy)octadec-9-en-1-yl) succinate] | stably retained |  |  |  |  |  |  |  |  | 
2 | C=C1/C(=C\C=C2/CCC[C@]3(C)[C@@H]([C@H](C)CCCC(C)(C)O)CC[C@@H]23)C[C@@H](OC(=O)CCCCCCC/C=C\C[C@@H](CCCCCC)OC(=O)CCCCCCC/C=C\C/C=C\CCCCC)C[C@@H]1OC(=O)CCCCCCC/C=C\C[C@@H](CCCCCC)OC(=O)CCCCCCC/C=C\C/C=C\CCCCC [Prodrug D087] |  | —/99% | 0.055 | 40 |  |  |  |  |  | 
3 | (1R,3S,Z)-3-hydroxy-5-(2-((1R,3aS,7aR,E)-1-((R)-6-hydroxy-6-methylheptan-2-yl)-7a-methyloctahydro-4H-inden-4-ylidene)ethylidene)-4-methylenecyclohexyl (R,Z)-12-acetoxyoctadec-9-enoate and (1S,5R,Z)-5-hydroxy-3-(2-((1R,3aS,7aR,E)-1-((R)-6-hydroxy-6-methylheptan-2-yl)-7a-methyloctahydro-4H-inden-4-ylidene)ethylidene)-2-methylenecyclohexyl (R,Z)-12-acetoxyoctadec-9-enoate [Prodrug D053] |  | —/98% | 0.070 | 55 | suppressed | significantly reduces | 97 | 0.034 | 69 | stably retained
